Where a name gives a salt, the structure may show the parent alone.
What was measured:
[1] = system: HepG2; assay: HepG2 toxicity (resazurin), effect normalised to DMSO (DMSO = 0); higher = more features changed / larger toxic effect; settings: incubation time: 70h incubation
[2] = system: HeLa; assay: HeLa toxicity: nuclei-count effect normalised to DMSO (DMSO = 0); higher = more features changed / larger toxic effect; settings: incubation time: 24h incubation
[3] = system: HeLa; assay: Cell Painting percent induction (share of features beyond 2 z-scores vs DMSO); higher = more features changed / larger toxic effect; extreme values may be limits of the assay; settings: incubation time: 24h incubation
[4] = system: human spermatozoa; assay: total motile sperm, percent change vs DMSO (non-capacitating); higher = more of the measured sperm population than DMSO, for viability, fewer PI-positive (dead) cells than DMSO
[5] = system: human spermatozoa; assay: viability fold change, 1 - (PI-positive fraction / DMSO median); higher = more of the measured sperm population than DMSO, for viability, fewer PI-positive (dead) cells than DMSO; settings: incubation time: 3h, non-capacitating
[6] = system: human spermatozoa; assay: progressively motile sperm, percent change vs DMSO (capacitating); higher = more of the measured sperm population than DMSO, for viability, fewer PI-positive (dead) cells than DMSO; settings: incubation time: 30min incubation
[7] = system: human spermatozoa; assay: hyperactivated motile sperm, percent change vs DMSO (capacitating); higher = more of the measured sperm population than DMSO, for viability, fewer PI-positive (dead) cells than DMSO; settings: incubation time: 30min incubation
[8] = system: human spermatozoa; assay: change in acrosome-reacted (PNA+) sperm vs DMSO, no agonist (capacitating); higher = more of the measured sperm population than DMSO, for viability, fewer PI-positive (dead) cells than DMSO; settings: incubation time: 3h
[9] = system: human spermatozoa; assay: acrosome-reacted (PNA+) sperm after agonist cocktail, percent change vs DMSO (capacitating); higher = more of the measured sperm population than DMSO, for viability, fewer PI-positive (dead) cells than DMSO; settings: incubation time: 3h, capacitating + agonist cocktail 1h
[10] = system: human spermatozoa; assay: progressively motile sperm, percent change vs DMSO (non-capacitating); higher = more of the measured sperm population than DMSO, for viability, fewer PI-positive (dead) cells than DMSO; extreme values may be limits of the assay
[11] = incubation time: 10min incubation, 9.99 µM
[12] = incubation time: 10min incubation, 29.9 µM
[13] = incubation time: 3h incubation, 9.99 µM
[14] = incubation time: 3h incubation, 29.9 µM
[15] = incubation time: 6h incubation, 9.99 µM
[16] = incubation time: 6h incubation, 29.9 µM
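For progressively motile sperm, percent change vs DMSO (non-capacitating) in this document: pooled live human sperm from at least 3 donors, tracked by automated microscopy in 0.5 s time-lapse movies, compounds at 10 and 30 µM, versus median of 16 DMSO wells per plate.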
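For total motile sperm, percent change vs DMSO (non-capacitating) in this document: sperm pooled from at least 3 donors, tracked in 0.5 s time-lapse movies by automated microscopy after 10 min, 3 h or 6 h with compound at 10 or 30 µM.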

SMILES | HepG2 toxicity ([1]; 10 µM) [%] | HepG2 toxicity ([1]; 30 µM) [%] | HeLa toxicity: nuclei-count effect normalised ([2]; 9.99 µM) [%] | HeLa toxicity: nuclei-count effect normalised ([2]; 29.9 µM) [%] | Cell Painting percent induction ([3]; 9.99 µM) [%] | Cell Painting percent induction ([3]; 29.9 µM) [%] | total motile sperm [4, 11] [%] | total motile sperm [4, 12] [%] | total motile sperm [4, 13] [%] | total motile sperm [4, 14] [%] | total motile sperm [4, 15] [%] | total motile sperm [4, 16] [%] | viability fold change ([5]; 9.99 µM) | viability fold change ([5]; 29.9 µM) | progressively motile sperm ([6]; 9.99 µM) [%] | progressively motile sperm ([6]; 29.9 µM) [%] | hyperactivated motile sperm ([7]; 9.99 µM) [%] | hyperactivated motile sperm ([7]; 29.9 µM) [%] | change in acrosome-reacted ([8]; 9.99 µM) [%] | change in acrosome-reacted ([8]; 29.9 µM) [%] | acrosome-reacted ([9]; 9.99 µM) [%] | acrosome-reacted ([9]; 29.9 µM) [%] | progressively motile sperm [10, 11] [%] | progressively motile sperm [10, 12] [%] | progressively motile sperm [10, 13] [%] | progressively motile sperm [10, 14] [%] | progressively motile sperm [10, 15] [%] | progressively motile sperm [10, 16] [%]
c1ccc2c(c1)SCc1c-2[nH]c2ccccc12 | 10.5 | 102 | 83.9 | 99.3 | 30.2 | 46 | -62 | -88.1 | -66.5 | -92.9 | -54.6 | -91.4 | 0.409 | 0.115 | -60.3 | -95.6 | -56.3 | -84.3 | 0.192 | 0.819 | 3.76 | -34.5 | -81.3 | -99.9 | -74.4 | -100 | -76 | -99.9
CC1(C)CC=C(c2ccccc2)c2cc(/C=C/c3ccc(C(=O)O)cc3)ccc21 | 0.925 | -8.39 | 6.08 | 8.35 | 0 | 0 | 2.52 | 2.83 | 0.861 | 0.353 | -4.19 | 0.705 | -1.22 | -0.368 | -4.62 | -9.29 | -3.7 | -30.1 | 1.18 | 1.38 | 10.6 | 7.54 | 8.04 | 5.98 | 18.8 | 9.32 | 6.74 | 13
Cc1ccc(S(=O)(=O)c2ccc([N+](=O)[O-])o2)cc1 | 103 | 103 | 83 | 88.8 | 18.5 | 9.8 | -0.166 | -5.06 | -76.8 | -91.9 | -86.5 | -92.7 | -1.25 | -1.57 | -9.29 | -10.6 | 3.4 | 0.123 | 3.49 | 4.92 | 81 | 103 | -30.4 | -44.1 | -96.9 | -100 | -99.3 | -100
CCCCCCCCOc1ccc(-c2noc([C@@H]3CCCN3C(=N)N)n2)cc1C(F)(F)F | 8.34 | 102 | 35.1 | 82.8 | 15.4 | 6.63 | 0.514 | -52.9 | -72.1 | -92.8 | -86.2 | -93.7 | -1.83 | -2.7 | -6.84 | -99.7 | -41.8 | -89.2 | 46.2 | 70.7 | 114 | 138 | 19.2 | -91.9 | -94.9 | -100 | -99.9 | -99.9
CN(c1ccccc1CNc1nc(Nc2ccc3c(c2)CC(=O)N3)ncc1C(F)(F)F)S(C)(=O)=O | 95.1 | 90.2 | 81.5 | 90.7 | 8.65 | 17.7 | -4.4 | -6.03 | -7.55 | -13.4 | -11 | -16.3 | -1.76 | -1.35 | -2.37 | -3.01 | 41.5 | -30.2 | 0.291 | 0.085 | -10.6 | -8.83 | 20.2 | 16.8 | 29.9 | 21.7 | 40.3 | 24.4
COc1cc(N2CCOCC2)ccc1Nc1ncc(F)c(Nc2ccccc2NS(C)(=O)=O)n1 | 11.9 | 14 | 12 | 70.3 | 0.324 | 14.1 | -2.71 | -11.9 | -6.38 | -20.1 | -5.57 | -17.4 | 0.0946 | 0.0988 | -10.8 | -4.79 | 7.89 | -19.1 | 0.77 | -0.256 | -20.4 | -26.8 | -27.7 | -60.9 | -32.8 | -74.5 | -27 | -69.7
CCc1cc(Nc2nccc(-c3c(-c4ccc(OC)c(C(=O)Nc5c(F)cccc5F)c4)nc4ccccn34)n2)c(OC)cc1N1CCC(N2CCN(S(C)(=O)=O)CC2)CC1 | 3.43 | -1.34 | 4.68 | -3.87 | 0 | 0.036 | -4.19 | -0.876 | -8.85 | -6.8 | -6.63 | -13 | 0.344 | 0.176 | -19.6 | -24.3 | -15.3 | -19 | 0.271 | -0.0593 | -8.69 | 2.76 | 4.67 | 2.77 | 36.3 | 31.8 | 50.7 | 33.6
O=C(c1cccs1)c1no[n+]([O-])c1C(=O)c1cccs1 | 103 | 103 | 36.5 | 82 | 0.216 | 14.3 | 1.03 | 2.49 | -13.1 | -40.1 | -30.5 | -54.9 | -0.427 | -1.21 | 0.304 | -15.7 | -32.4 | -81.3 | 1.47 | 2.4 | -24.1 | -23.9 | -17 | -39.6 | -29.1 | -78.3 | -50.4 | -91.5
Nc1nonc1C(=O)c1cccc(OCc2nc3ccccc3[nH]2)c1 [ASI-8] | 7.95 | -4.37 | -5.48 | 1.8 | 0.036 | 0.072 | 3.13 | 2.79 | 1.2 | -0.414 | 3.96 | 1.2 | -0.34 | -0.223 | 11.1 | 6.99 | -38 | -39.8 | 0.432 | 0.568 | -14.8 | -14.9 | -2.86 | -2.99 | -14.7 | -20.6 | -17.4 | -29.2
NC(=O)Nc1cc(-c2cccc(F)c2)sc1C(=O)N[C@H]1CCCNC1 [AZD 7762 hydrochloride] | 101 | 101 | 80.1 | 76.8 | 17 | 11 | -11.3 | -17.4 | -10.7 | -22.4 | -13.2 | -23.1 | -0.829 | -1.22 | -19.7 | -30.7 | -57.9 | -72 | 0.07 | 1.03 | -44.6 | -44 | -49.3 | -57.6 | -35.4 | -48.7 | -30.8 | -49.2
CCCCC(CC)C/N=C(\N)N/C(N)=N/CCCCCC/N=C(\N)N/C(N)=N/CC(CC)CCCC (stereo unspecified) [Alexidine dihydrochloride] | 89.8 | 103 | 82.5 | 57.3 | 4.11 | 13.2 | -25.4 | -91.3 | -92.5 | -89.6 | -92.8 | -89.2 | -2.59 | -3.31 | -95.3 | -100 | -81.6 | -86.5 | 65.4 | 86.5 | 148 | 214 | -63.3 | -99.9 | -99.9 | -100 | -100 | -100
COc1cc2nc(N(C)CCCNC(=O)C3CCCO3)nc(N)c2cc1OC (stereo unspecified) [Alfuzosin] | -1.03 | 4.29 | 5.08 | 0.668 | 0 | 0 | -4.58 | -4.17 | -0.419 | -6.01 | -5.29 | -6.7 | -0.036 | -0.0945 | 16 | 9.67 | 37.3 | 5.32 | -0.201 | -0.552 | -3.12 | 0.779 | 0.477 | -1.83 | 14.5 | 16.4 | 16.7 | 20.9
CCCCC/C=C\C/C=C\C/C=C\C/C=C\CCCC(=O)NCCO [Anandamide] | 4 | -4.04 | 3.27 | 22.7 | 0 | 0 | 0.0733 | 1.31 | -5.97 | 0.46 | -4.78 | -4.35 | -1.03 | -1.89 | 5.07 | 5.94 | -8.05 | -17.2 | 0.407 | 0.71 | -2.45 | -3.7 | 0.835 | 4.89 | 8.76 | 18.1 | 15.3 | 17.7
Cn1c(=O)c2c(-c3ccccc3)n3c(c2n(C)c1=O)[C@H](c1ccc(Br)o1)Oc1ccc(C(=O)O)cc1-3 [BPO-27] | 6.74 | -5.25 | -5.61 | -3.14 | 0.901 | 0 | -0.595 | -2.15 | 1.67 | -2.1 | 2.71 | -8.78 | -0.786 | -0.502 | -0.551 | -1.51 | 26.2 | 0.866 | 0.114 | -0.202 | 6.48 | 12.2 | 4.77 | 14.7 | 32.6 | 41.5 | 37.8 | 42.7
Oc1c(Cl)cc(Cl)cc1Sc1cc(Cl)cc(Cl)c1O [Bithionol] | 7.02 | 59.3 | -4.61 | 21.5 | 0 | 0.036 | 3.44 | 1.84 | 1.98 | -0.0801 | 2.41 | -5.59 | 0.0494 | 0.376 | 2.24 | 1.88 | 4.13 | 7.86 | 0.572 | 1.65 | 1.08 | -1.64 | 3.11 | -10.9 | 11.4 | -27.5 | 17.4 | -30.7
NC(=O)c1cc(-c2ccc(S(=O)(=O)[C@H]3CC[C@H](Nc4ccc(C(F)(F)F)cn4)CC3)cc2)ccn1 [CCR6 inhibitor 1] | 93.6 | 97.6 | 38.5 | 82.3 | 0.144 | 1.51 | -1.18 | -0.388 | -10.1 | -17.5 | -12.7 | -30 | -1.3 | -0.257 | 4.84 | -2.5 | 0.384 | -27 | 0.47 | 1.33 | 47.9 | 31 | 20.1 | 23 | 25.5 | 9.27 | 37.7 | -18.5
O=C(O)c1ccc(/C=C2/SC(=S)N(c3cccc(C(F)(F)F)c3)C2=O)cc1 [CTFRinh-172] | 10.5 | -1.68 | 0.134 | 4.28 | 1.51 | 2.67 | -0.0195 | 0.898 | 0.0108 | -0.0432 | -7.63 | -1.41 | -0.401 | -0.284 | -6.92 | -8.59 | -0.45 | -19.9 | 0.257 | -0.529 | 2.51 | 5.75 | 3.85 | -3.67 | 4.25 | 3.7 | -2.41 | 3.06
